The results in this text go back to patent US20030134305A1, “Method for the enumeration of mammalian micronucleated erythrocyte populations with a single-laser flow cytometer” (priority 2001, published 2003).

In the series the test system is rat peripheral blood erythrocyte populations. As to conditions: male rat, oral, 10 mg/kg body weight/day for 6 days.
[1] abbreviates: tail vein blood ~24 hours after final administration, single replicate, 10 mg/kg/day.

SMILES strings stand for the structures. Where “and” joins values, the source holds several entries; their conditions need not be identical. Equal values may be shown once.

Experimental: Approximately 24 hours after the sixth and final administration, blood was collected from the tail vein after a brief warming period under a heat lamp. Blood was maintained in a sodium heparin solution (500 USP units heparin/ml PBS) at room temperature until samples were fixed with −80° C. methanol. The fixed blood samples were divided into several aliquots and were coded for single-blind analysis. […] Pellets were tapped loose and 40 μl of each cell suspension was transferred to tubes containing 100 μl labeling solution (1000 μl HBSS with 0.5% fetal bovine serum plus 5 μl anti-rat CD71-PE plus 20 μg RNase A). Cells were then incubated for 30 minutes at 4° C. and then 45 minutes at 37° C. Unbound antibody was washed by adding 3 ml HBSS plus 0.5% fetal bovine serum and centrifuging for 5 minutes at about 600×g. Supernatants were aspirated, and cell pellets were tapped loose. Cells were resuspended with 1 ml HBSS containing 10^−5 dilution of SYTOX Green nucleic acid dye. Sufficient time was allowed for the nucleic acid dye to load and equilibrate with the cells (about 15 minutes at 4° C.). Cells labeled with anti-CD71-PE and stained with SYTOX Green were analyzed with a FACSCalibur flow cytometer (488 nm excitation). The frequencies of RET^CD71+, MN-RET^CD71+ and MN-NCEs were determined. As commonly practiced by flow cytometry operators, events were gated on light scatter characteristics, and in this way subcellular debris or cellular aggregates were excluded from analysis. […] For these analyses, the stop mode was the acquisition of 20,000 RETs per replicate.

Turning to `O=P1(N(CCCl)CCCl)NCCCO1` (centres unmarked) [cyclophosphamide], the “% RET^CD71+ (CD71-positive reticulocytes)” value (tail vein blood ~24 hours after final administration, single replicate, 20,000 RETs per replicate) is 2.66% and 2.72% and 2.57%. Besides, under setting [1], the “% MN-NCE (micronucleated normochromatic erythrocytes)” value is 0.05% and 0.04% (2×); the “% MN-RET^CD71+ (micronucleated CD71-positive reticulocytes)” value is 0.73% and 0.64% and 0.63%. Where the note is “Avg. of 3 replicates”, the “% MN-NCE (micronucleated normochromatic erythrocytes), Avg.” value is listed as 0.04%; the “% MN-RET^CD71+ (micronucleated CD71-positive reticulocytes), Avg.” value stood at 0.67%; the “% RET^CD71+ (CD71-positive reticulocytes), Avg.” value was found to be 2.65%. Also, for the setting “result in words”, the “DNA-breaking activity: MN-RET^CD71+ frequency versus water-treated rat” value is on record as “increased” and the “cytostatic effect: RET^CD71+ frequency versus water-treated rat” value was “decreased”.
